Results published in patent US9783539B2, “Indoloquinolone compounds as anaplastic lymphoma kinase (ALK) inhibitors” (Jiangsu Ascentage Biomed Development Inc., priority 2014, dated 2017).
Values joined by “and” are separate entries in the source; they are usually repeats but may differ in a detail not shown here. Identical values can stand only once. Like-named read-outs stand apart in the source and are kept apart here.

Tests used:
[1] = biological target: wild-type human ALK protein (cytoplasmic domain, amino acid 1058-1620, GST-fusion) (Homo sapiens, UniProt Q9UM73); assay: biochemical; settings: ALK IC50, wild-type ALK; 100 μM ATP
wild-type human ALK protein (cytoplasmic domain, amino acid 1058-1620, GST-fusion), sequence (Q9UM73 1058-1620): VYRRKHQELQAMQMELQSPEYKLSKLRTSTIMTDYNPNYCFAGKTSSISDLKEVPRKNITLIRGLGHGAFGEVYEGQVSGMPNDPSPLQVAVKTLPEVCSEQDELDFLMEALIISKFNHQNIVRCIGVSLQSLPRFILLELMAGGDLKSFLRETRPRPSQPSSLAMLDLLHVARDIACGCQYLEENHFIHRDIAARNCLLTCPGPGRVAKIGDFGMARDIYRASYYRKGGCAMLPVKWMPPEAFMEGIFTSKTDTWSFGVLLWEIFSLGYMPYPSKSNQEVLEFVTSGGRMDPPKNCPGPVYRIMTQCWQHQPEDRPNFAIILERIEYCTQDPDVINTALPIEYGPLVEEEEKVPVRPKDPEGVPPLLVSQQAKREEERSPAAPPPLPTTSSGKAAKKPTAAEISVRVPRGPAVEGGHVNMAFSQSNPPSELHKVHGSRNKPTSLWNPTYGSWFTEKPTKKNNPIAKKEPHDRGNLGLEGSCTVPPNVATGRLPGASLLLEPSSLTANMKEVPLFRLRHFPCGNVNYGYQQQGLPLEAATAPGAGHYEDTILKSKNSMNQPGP
Procedure: Kinase activities of all enzymes were assessed using a Lance TR-FRET assay kit from Perkin Elmer Life Sciences (Waltham, Mass.). 2.5 μL of compound solution and 5 μL of protein solution were added into a black low volume 384 well microtiter plate which was incubated for 15 minutes with gentle shaking at room temperature, followed by adding 2.5 μL of fluorescently labeled peptide substrate (Ulight-[sequence]) and ATP mixture solution. The kinase reaction was performed in 50 mM HEPES (pH 7.5) with 1 mM EGTA, 1 mM MgCl2, and 2 mM DTT, 0.01% Tween-20 added right before the assay. […] The reaction was allowed to perform for 90 minutes in dark with gentle shaking at room temperature after which 10 μL of 20 mM EDTA and 2 nM Eu-W1024 anti-phosphotyrosine antibody (PT66) mixture solution in the detection buffer from the manufacturer was added to terminate the reaction and detect the phosphorylation of the peptide substrate. Final mixture was incubated in the dark for 1 hour before the plate was read on a Tecan Infinite M-1000 multi-mode plate reader (Tecan, Durham N.C.) with an excitation wavelength of 320 nm.

[2] = test system: Kappas-299 cells containing NPM-ALK fusion protein; assay: 4-day cell viability assay (CellTiter-Glo), Kappas-299; type: cell-based; settings: inhibition of cell growth, 4 days, multiple values from independent experiments
Procedure: The effect of compounds on cell viability was determined in a 4-day proliferation assay. Cells were maintained in RPMI1640 culture medium with 10% FBS at 37° C. and an atmosphere of 5% CO2. […] Cells were seeded in 96-well plates at a density of 3,000-10,000 cells/well in 75 μl of culture medium. Compounds were serially diluted in the appropriate medium, and 75 μl of the diluted compounds were added to the appropriate wells of the cell plate. After the addition of compounds, the cells were incubated at 37° C. in an atmosphere of 5% CO2 for 4 days. Cell viability was determined using the CellTiter-Glo® Luminescent Cell Viability Assay Kit (Promega, Madison, Wis.) (for KARPAS-299 cells) or WST (2-(2-methoxy-4-nitrophenyl)-3-(4-nitrophenyl)-5-(2,4-disulfophenyl)-2H-tetrazolium, monosodium salt) Cell Counting-8 Kit (Dojindo Molecular Technologies, Inc., Rockville, Md.) (for H3122 cells) according to the manufacturers' instructions.
For CellTiter-Glo assay, 100 μl of CellTiter-Glo® Reagent was added to each well, and then the plates were incubated at room temperature for 10-20 minutes. The luminescent signal was measured using a Tecan Infinite M1000 multimode microplate reader (Tecan, Morrisville, N.C.). The readings were normalized to the DMSO-treated cells and the IC50 was calculated by nonlinear regression analysis using the GraphPad Prism 5 software.
Cells were treated for four days and cell growth was determined using a CellTiter-Glo assay.

[3] = Pharmacokinetic parameters in SD rats, IV and PO; design: AUC(0-t): concentration or dose not given beside the values; settings: Sprague-Dawley (SD), rat, in vivo; for bioavailability: po, read-out: Oral Bioavailability (F)
From the text: The pharmacokinetic (PK) parameters in SD rats for selected compounds with intravenous (IV) and oral (PO) administrations are provided in the following table (Table 5).

[4] = intravenous, read-out: AUC0-t IV
[5] = intravenous, read-out: t1/2 IV (converted)
[6] = oral, read-out: t1/2 PO (converted)

| Compound | IC50 [1] | AUC(0-t) [3, 4] [ng·h/mL] | Cmax ([3]; intravenous, read-out: Cmax IV) [ng/mL] | Tmax ([3]; intravenous, read-out: Tmax IV) [h] | half-life [3, 5] [h] | AUC(0-t) ([3]; oral, read-out: AUC0-t PO) [ng·h/mL] | Cmax ([3]; oral, read-out: Cmax PO) [ng/mL] | Tmax ([3]; oral, read-out: Tmax PO) [h] | half-life [3, 6] [h] | bioavailability [3] [%] | IC50 ([2]; NPM-ALK, 96 h) [nM] | IC50 [2] [nM] |
| --- | --- | --- | --- | --- | --- | --- | --- | --- | --- | --- | --- | --- |
| COc1cc2c(=O)c3c4ccc(C#N)cc4[nH]c3n(C(C)C)c2c(F)c1C1CCN(C)CC1 [CJ-2212, 4-Fluoro-5-isopropyl-2-methoxy-3-(1-methylpiperidin-4-yl)-11-oxo-6,11-dihydro-5H-indolo[2,3-b]quinoline-8-carbonitrile] | – | 574 | 169 | 0.083 | 4.78 | 2060 | 208 | 5.33 | 4.08 | 70.6 | – | – |
| COc1cc2c(=O)c3c4ccc(C#N)cc4[nH]c3n(C(C)C)c2c(F)c1C1CCN(C2COC2)CC1 [CJ-2224, 4-Fluoro-5-isopropyl-2-methoxy-3-(1-(oxetan-3-yl)piperidin-4-yl)-11-oxo-6,11-dihydro-5H-indolo[2,3-b]quinoline-8-carbonitrile] | – | 2340 | 959 | 0.083 | 4.71 | 9640 | 1170 | 0.67 | 3.86 | 81.5 | – | – |
| COc1cc2c(=O)c3c4ccc(C#N)cc4[nH]c3n(C(C)C)c2c(F)c1C1CCN(C(C)C)CC1 [CJ-2225, 4-Fluoro-5-isopropyl-3-(1-isopropylpiperidin-4-yl)-2-methoxy-11-oxo-6,11-dihydro-5H-indolo[2,3-b]quinoline-8-carbonitrile] | – | 1110 | 212 | 0.222 | 4.54 | 2340 | 225 | 5.33 | 4.31 | 41.7 | – | – |
| COc1cc2c(=O)c3c4ccc(C#N)cc4[nH]c3n(C(C)C)c2c(F)c1C1CCN(C2CCOCC2)CC1 [CJ-2226, 4-Fluoro-5-isopropyl-2-methoxy-11-oxo-3-(1-(tetrahydro-2H-pyran-4-yl)piperidin-4-yl)-6,11-dihydro-5H-indolo[2,3-b]quinoline-8-carbonitrile] | – | 1000 | 296 | 0.083 | 4.37 | 2370 | 230 | 4.67 | 4.99 | 47.3 | – | – |

The next lines start with results.

| IC50 [1] | AUC(0-t) [3, 4] [ng·h/mL] | Cmax ([3]; intravenous, read-out: Cmax IV) [ng/mL] | Tmax ([3]; intravenous, read-out: Tmax IV) [h] | half-life [3, 5] [h] | AUC(0-t) ([3]; oral, read-out: AUC0-t PO) [ng·h/mL] | Cmax ([3]; oral, read-out: Cmax PO) [ng/mL] | Tmax ([3]; oral, read-out: Tmax PO) [h] | half-life [3, 6] [h] | bioavailability [3] [%] | Compound | IC50 ([2]; NPM-ALK, 96 h) [nM] | IC50 [2] [nM] |
| --- | --- | --- | --- | --- | --- | --- | --- | --- | --- | --- | --- | --- |
| 661 nM | – | – | – | – | – | – | – | – | – | COc1cc2c(=O)c3c4ccc(C#N)cc4[nH]c3n(C)c2cc1N1CCC(N2CCOCC2)CC1 [ALK-22, 2-Methoxy-5-methyl-3-(4-morpholinopiperidin-1-yl)-11-oxo-6,11-dihydro-5H-indolo[2,3-b]quinoline-8-carbonitrile] | 90.3 | – |
| 309 nM | – | – | – | – | – | – | – | – | – | COc1cc2c(=O)c3c4ccc(C#N)cc4[nH]c3n(C)c2cc1N1CCN(C)CC1 [ALK-23, 2-Methoxy-5-methyl-3-(4-methylpiperazin-1-yl)-11-oxo-6,11-dihydro-5H-indolo[2,3-b]quinoline-8-carbonitrile] | – | – |
| 17.8 nM | – | – | – | – | – | – | – | – | – | COc1cc2c(=O)c3c4ccc(C#N)cc4[nH]c3n(C(C)C)c2cc1N1CCC(N2CCOCC2)CC1 [ALK-25, 5-isoPropyl-2-methoxy-3-(4-morpholinopiperidin-1-yl)-11-oxo-6,11-dihydro-5H-indolo[2,3-b]quinoline-8-carbonitrile] | 137 | – |
| 29.7 nM | – | – | – | – | – | – | – | – | – | CCC(CC)n1c2cc(N3CCN(C)CC3)c(OC)cc2c(=O)c2c3ccc(C#N)cc3[nH]c21 [ALK-40, 2-Methoxy-3-(4-methylpiperazin-1-yl)-11-oxo-5-(pentan-3-yl)-6,11-dihydro-5H-indolo[2,3-b]quinoline-8-carbonitrile] | 415 | – |
| 28.5 nM | – | – | – | – | – | – | – | – | – | COc1cc2c(=O)c3c4ccc(C#N)cc4[nH]c3n(CC(C)(C)C)c2cc1N1CCN(C)CC1 [ALK-43, 2-Methoxy-3-(4-methylpiperazin-1-yl)-5-neopentyl-11-oxo-6,11-dihydro-5H-indolo[2,3-b]quinoline-8-carbonitrile] | 266 | 261 |
| 1.8 nM and 5.1 nM | – | – | – | – | – | – | – | – | – | CCc1cc2c(=O)c3c4ccc(C#N)cc4[nH]c3n(C3CCC3)c2cc1N1CCN(C)CC1 [ALK-45, 5-cyclobutyl-2-ethyl-3-(4-methylpiperazin-1-yl)-11-oxo-6,11-dihydro-5H-indolo[2,3-b]quinoline-8-carbonitrile] | 35 | 62 |
